PubChem BioAssay (NCI)
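Following 48 hours of exposure in 96-well plates, responses at five concentrations were used to interpolate endpoints linearly. GI50 is the concentration that inhibits growth by half. The concentration for full growth arrest is given as TGI.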

Key:
Test in all cases: NCI anticancer screen, dose series, 48 h
[1] = tested on: 786-0 renal
[2] = tested on: A498 renal
[3] = tested on: A549 NSCLC
[4] = tested on: ACHN renal
[5] = tested on: BT-549 breast
[6] = tested on: CAKI-1 renal
[7] = tested on: CCRF-CEM leukemia
[8] = tested on: COLO 205 colon
[9] = tested on: DU-145 prostate
[10] = tested on: EKVX NSCLC
[11] = tested on: HCC-2998 colon
[12] = tested on: HCT-116 colon
[13] = tested on: HCT-15 colon
[14] = tested on: HL-60(TB) leukemia
[15] = tested on: HOP-62 NSCLC
[16] = tested on: HOP-92 NSCLC
[17] = tested on: HS 578T breast
[18] = tested on: HT29 colon
[19] = tested on: IGROV1 ovarian
[20] = tested on: K-562 leukemia
[21] = tested on: KM12 colon
[22] = tested on: LOX IMVI melanoma
[23] = tested on: M14 melanoma
[24] = tested on: MALME-3M melanoma
[25] = tested on: MCF7 breast
[26] = tested on: MDA-MB-231 breast
[27] = tested on: MDA-MB-435
[28] = tested on: MOLT-4 leukemia
[29] = tested on: NCI-H226 lung
[30] = tested on: NCI-H23 lung
[31] = tested on: NCI-H460 lung
[32] = tested on: NCI-H522 lung
[33] = tested on: NCI/ADR-RES ovarian
[34] = tested on: OVCAR-3 ovarian
[35] = tested on: OVCAR-4 ovarian
[36] = tested on: OVCAR-5 ovarian
[37] = tested on: OVCAR-8 ovarian
[38] = tested on: PC-3 prostate
[39] = tested on: RPMI-8226 leukemia
[40] = tested on: RXF 393 renal
[41] = tested on: SF-268 CNS
[42] = tested on: SF-295 CNS
[43] = tested on: SF-539 CNS
[44] = tested on: SK-MEL-2 melanoma
[45] = tested on: SK-MEL-28 melanoma
[46] = tested on: SK-MEL-5 melanoma
[47] = tested on: SK-OV-3 ovarian
[48] = tested on: SN12C renal
[49] = tested on: SNB-19 CNS
[50] = tested on: SNB-75 CNS
[51] = tested on: SR leukemia
[52] = tested on: SW-620 colon
[53] = tested on: T-47D breast
[54] = tested on: TK-10 renal
[55] = tested on: U251 CNS
[56] = tested on: UACC-257 melanoma
[57] = tested on: UACC-62 melanoma
[58] = tested on: UO-31 renal

CCCn1cnc2c(SCc3ccccc3Cl)nc(N)nc21
GI50 [1]: 14.9 µM
TGI [1]: 31.6 µM
GI50 [2]: 18.3 µM
TGI [2]: > 100 µM
GI50 [3]: 20.8 µM
TGI [3]: > 100 µM
GI50 [4]: 13.6 µM
TGI [4]: 67.4 µM
GI50 [5]: 13.7 µM
TGI [5]: 44 µM
GI50 [6]: 6.43 µM
TGI [6]: 44.1 µM
GI50 [7]: 5.9 µM
TGI [7]: 47.3 µM
GI50 [8]: 10.7 µM
TGI [8]: > 100 µM
GI50 [9]: 15.5 µM
TGI [9]: 45.6 µM
GI50 [10]: 24.2 µM
TGI [10]: > 100 µM
GI50 [11]: 17.8 µM
TGI [11]: 67 µM
GI50 [12]: 5.2 µM
TGI [12]: 17.5 µM
GI50 [13]: 1.36 µM
TGI [13]: 20.1 µM
GI50 [14]: 5.53 µM
TGI [14]: 28.6 µM
GI50 [15]: 21.1 µM
TGI [15]: > 100 µM
GI50 [16]: 1.44 µM
TGI [16]: 23.9 µM
GI50 [17]: 40.4 µM
TGI [17]: > 100 µM
GI50 [18]: 7.59 µM
TGI [18]: > 100 µM
GI50 [19]: 13.3 µM
TGI [19]: > 100 µM
GI50 [20]: 6.55 µM
TGI [20]: > 100 µM
GI50 [21]: 15.3 µM
TGI [21]: > 100 µM
GI50 [22]: 4.86 µM
TGI [22]: 20.3 µM
GI50 [23]: 17.6 µM
TGI [23]: 61.9 µM
GI50 [24]: 21.4 µM
TGI [24]: 58.7 µM
GI50 [25]: 38.6 µM
TGI [25]: > 100 µM
GI50 [26]: 11.8 µM
TGI [26]: 29.3 µM
GI50 [27]: 13.6 µM
TGI [27]: 37 µM
GI50 [28]: 5.22 µM
TGI [28]: 34.1 µM
GI50 [29]: 16.4 µM
TGI [29]: > 100 µM
GI50 [30]: 30 µM
TGI [30]: > 100 µM
GI50 [31]: 4.2 µM
TGI [31]: 26.4 µM
GI50 [32]: 19.4 µM
TGI [32]: 71.1 µM
GI50 [33]: 14.8 µM
TGI [33]: 64.1 µM
GI50 [34]: 20.5 µM
TGI [34]: 79.6 µM
GI50 [35]: 28 µM
TGI [35]: > 100 µM
GI50 [36]: 25.7 µM
TGI [36]: 91.9 µM
GI50 [37]: 15.3 µM
TGI [37]: > 100 µM
GI50 [38]: 6.49 µM
TGI [38]: 37.5 µM
GI50 [39]: 6.28 µM
TGI [39]: 28.2 µM
GI50 [40]: 6.16 µM
TGI [40]: 24.8 µM
GI50 [41]: 12.1 µM
TGI [41]: 92.7 µM
GI50 [42]: 10.2 µM
TGI [42]: 30.4 µM
GI50 [43]: 9.81 µM
TGI [43]: 44.8 µM
GI50 [44]: 22.6 µM
TGI [44]: 50.9 µM
GI50 [45]: 27 µM
TGI [45]: > 100 µM
GI50 [46]: 4.22 µM
TGI [46]: 19 µM
GI50 [47]: 14.9 µM
TGI [47]: > 100 µM
GI50 [48]: 19.6 µM
TGI [48]: 95.2 µM
GI50 [49]: 25.8 µM
TGI [49]: > 100 µM
GI50 [50]: 19.7 µM
TGI [50]: 86 µM
GI50 [51]: 2.23 µM
TGI [51]: 14.2 µM
GI50 [52]: 11.9 µM
TGI [52]: > 100 µM
GI50 [53]: 22 µM
TGI [53]: 80.8 µM
GI50 [54]: 14.5 µM
TGI [54]: > 100 µM
GI50 [55]: 5.62 µM
TGI [55]: 37.8 µM
GI50 [56]: 27.8 µM
TGI [56]: 93.8 µM
GI50 [57]: 8.53 µM
TGI [57]: 22.7 µM
GI50 [58]: 10.8 µM
TGI [58]: 63.5 µM
